In US8871681B2, “Herbicidal compositions comprising 4-amino-3-chloro-5-fluoro-6-(4-chloro-2-fluoro-3-methoxyphenyl) pyridine-2-carboxylic acid or a derivative thereof and certain sulfonylureas” (Dow AgroSciences LLC, priority 2012, dated 2014):
Where “and” joins values, the source holds several entries; their conditions need not be identical. Equal values may be shown once. Read-outs that look alike come from different tables or passages of the source.

Key:
Assay in all cases: Postemergence foliar-applied weed control, direct seeded rice, greenhouse (Example I)
[1] = test system: LEFCH (Leptochloa chinensis, Chinese sprangletop); assay type: in vivo, Leptochloa chinensis (L.) Nees; settings: for pest or weed control at 8.75 g/ha: 8.75 gae/ha; for pest or weed control at 4.38 g/ha: 4.38 gae/ha
Procedure, shortened: (§1)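 Greenhouse-grown plants (14 h photoperiod, 29/26 °C day/night) at first to fourth true leaf stage sprayed overhead at 187 L/ha with Compound A (acid equivalent basis) alone or mixed with sulfonylurea ALS inhibitors (active ingredient basis). Final spray contained 1.25% v/v crop oil concentrate; controls received solvent blank.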

[2] = test system: IPOHE (Ipomoea hederacea, ivyleaf morningglory); assay type: in vivo, Ipomoea hederacea Jacq.
Procedure, shortened: as §1

[3] = test system: CYPIR (Cyperus iria, rice flatsedge); assay type: in vivo, Cyperus iria L.
Procedure, shortened: as §1

[4] = Dinebra chinensis, post-emergence, 480 h, 20 DAA, read-out: Visual Weed Control (%) Obs

COC(=O)c1ccccc1CS(=O)(=O)NC(=O)Nc1nc(OC)cc(OC)n1 [Bensulfuron-methyl, methyl 2-[[[[[(4,6-dimethoxy-2-pyrimidinyl)amino]carbonyl]amino]sulfonyl]methyl]benzoate, reference compound]
pest or weed control at 70 g/ha ([1]; Dinebra chinensis, post-emergence, 480 h, 20 DAA, 70 gai/ha, read-out: Visual Weed Control (%) Obs): 5%
pest or weed control at 17.5 g/ha ([1]; Dinebra chinensis, post-emergence, 504 h, 21 DAA, 17.5 gai/ha, read-out: Visual Weed Control (%) Obs): 10%
pest or weed control at 35 g/ha ([1]; Dinebra chinensis, post-emergence, 504 h, 21 DAA, 35 gai/ha, read-out: Visual Weed Control (%) Obs): 10%

COc1c(Cl)ccc(-c2nc(C(=O)OCc3ccccc3)c(Cl)c(N)c2F)c1F [Compound A Benzyl Ester]
Visual Weed Control (%) Obs ([2]; 20 DAA, 4.38 gae/ha): 10%
Visual Weed Control (%) Obs ([2]; 20 DAA, 8.75 gae/ha): 10%
Visual Weed Control (%) Obs ([2]; 20 DAA, 17.5 gae/ha): 25%
Visual Weed Control (%) Obs ([2]; 21 DAA, 4.38 gae/ha): 0%
Visual Weed Control (%) Obs ([2]; 21 DAA, 8 gae/ha): 10%
Visual Weed Control (%) Obs ([2]; 21 DAA, 8.75 gae/ha): 10%
Visual Weed Control (%) Obs ([2]; 21 DAA, 16 gae/ha): 10%
Visual Weed Control (%) Obs ([2]; 21 DAA, 17.5 gae/ha): 30%
Visual Weed Control (%) Obs ([2]; 21 DAA, 32 gae/ha): 45%
Visual Weed Control Obs ([2]; 22 DAA, 8 gae/ha): 10%
Visual Weed Control Obs ([2]; 22 DAA, 16 gae/ha): 10%
Visual Weed Control Obs ([2]; 22 DAA, 32 gae/ha): 35%
Visual Weed Control Obs ([1]; 22 DAA, 8 gae/ha): 0%
pest or weed control at 8.75 g/ha ([1]; Dinebra chinensis, post-emergence, 480 h, read-out: Visual Weed Control (%) Obs, 20 DAA): 20%
pest or weed control at 17.5 g/ha ([1]; Dinebra chinensis, post-emergence, 480 h, read-out: Visual Weed Control (%) Obs, 20 DAA, 17.5 gae/ha): 40%
pest or weed control at 4.38 g/ha ([1]; Dinebra chinensis, post-emergence, 504 h, read-out: Visual Weed Control (%) Obs, 21 DAA): 0%
pest or weed control at 8 g/ha ([1]; Dinebra chinensis, post-emergence, 504 h, read-out: Visual Weed Control (%) Obs, 21 DAA, 8 gae/ha): 20%
pest or weed control at 8 g/ha ([1]; Dinebra chinensis, post-emergence, 528 h, read-out: Visual Weed Control (%) Obs, 22 DAA, 8 gae/ha): 0%
pest or weed control at 16 g/ha ([1]; Dinebra chinensis, post-emergence, 528 h, read-out: Visual Weed Control (%) Obs, 22 DAA, 16 gae/ha): 20%
pest or weed control at 32 g/ha ([1]; Dinebra chinensis, post-emergence, 528 h, read-out: Visual Weed Control (%) Obs, 22 DAA, 32 gae/ha): 15%
pest or weed control at 8.75 g/ha ([1]; Dinebra chinensis, post-emergence, 576 h, read-out: Visual Weed Control (%) Obs, 24 DAA): 0%
pest or weed control at 17.5 g/ha ([1]; Dinebra chinensis, post-emergence, 576 h, read-out: Visual Weed Control (%) Obs, 24 DAA, 17.5 gae/ha): 10%
Visual Weed Control (%) Obs ([3]; 20 DAA, 4.38 gae/ha): 15%
Visual Weed Control (%) Obs ([3]; 20 DAA, 8.75 gae/ha): 60%
Visual Weed Control (%) Obs ([3]; 20 DAA, 17.5 gae/ha): 90%
Visual Weed Control (%) Obs ([3]; 21 DAA, 4.38 gae/ha): 50%
Visual Weed Control (%) Obs ([3]; 22 DAA, 16 gae/ha): 60% and 80%

COCC(=O)OC(c1ncccc1S(=O)(=O)NC(=O)Nc1nc(OC)cc(OC)n1)C(C)F (centres unmarked) [Flucetosulfuron, 1-[3-[[[[(4,6-dimethoxy-2-pyrimidinyl)amino]carbonyl]amino]sulfonyl]-2-pyridinyl]-2-fluoropropyl 2-methoxyacetate]
Visual Weed Control (%) Obs ([2]; 21 DAA, 0.05 gai/ha): 20%
Visual Weed Control (%) Obs ([2]; 21 DAA, 0.2 gai/ha): 20%
Visual Weed Control (%) Obs ([2]; 22 DAA, 5 gai/ha): 90%
Visual Weed Control (%) Obs ([2]; 22 DAA, 10 gai/ha): 90%
pest or weed control at 0.05 g/ha ([1]; Dinebra chinensis, post-emergence, 504 h, 21 DAA, 0.05 gai/ha, read-out: Visual Weed Control (%) Obs): 0%
pest or weed control at 0.1 g/ha ([1]; Dinebra chinensis, post-emergence, 504 h, 21 DAA, 0.1 gai/ha, read-out: Visual Weed Control (%) Obs): 0%
pest or weed control at 1.7 g/ha ([1]; Dinebra chinensis, post-emergence, 528 h, 22 DAA, 1.7 gai/ha, read-out: Visual Weed Control (%) Obs): 0%
pest or weed control at 5 g/ha ([1]; Dinebra chinensis, post-emergence, 528 h, 22 DAA, 5 gai/ha, read-out: Visual Weed Control (%) Obs): 0%
Visual Weed Control (%) Obs ([3]; 21 DAA, 0.05 gai/ha): 0%
Visual Weed Control (%) Obs ([3]; 21 DAA, 0.1 gai/ha): 0%
Visual Weed Control (%) Obs ([3]; 21 DAA, 0.2 gai/ha): 20%

COc1c(Cl)ccc(-c2nc(C(=O)O)c(Cl)c(N)c2F)c1F [Compound A Acid, 4-amino-3-chloro-5-fluoro-6-(4-chloro-2-fluoro-3-methoxy-phenyl)pyridine-2-carboxylic acid]
Visual Weed Control (%) Obs ([2]; 20 DAA, 5.3 gae/ha): 0%
Visual Weed Control (%) Obs ([2]; 20 DAA, 10.6 gae/ha): 15%
Visual Weed Control (%) Obs ([2]; 20 DAA, 21.2 gae/ha): 25%
Visual Weed Control (%) Obs ([2]; 21 DAA, 4.38 gae/ha): 25%
Visual Weed Control (%) Obs ([2]; 21 DAA, 8.75 gae/ha): 30%
Visual Weed Control (%) Obs ([2]; 21 DAA, 17.5 gae/ha): 45%
Visual Weed Control (%) Obs ([2]; 22 DAA, 8 gae/ha): 25%
Visual Weed Control (%) Obs ([2]; 22 DAA, 16 gae/ha): 35%
Visual Weed Control (%) Obs ([2]; 22 DAA, 32 gae/ha): 40%
pest or weed control at 4.38 g/ha [1, 4]: 0%
pest or weed control at 5.3 g/ha ([1]; Dinebra chinensis, post-emergence, 480 h, 20 DAA, 5.3 gae/ha, read-out: Visual Weed Control (%) Obs): 0%
pest or weed control at 8.75 g/ha [1, 4]: 0%
pest or weed control at 10.6 g/ha ([1]; Dinebra chinensis, post-emergence, 480 h, 20 DAA, 10.6 gae/ha, read-out: Visual Weed Control (%) Obs): 10%
pest or weed control at 17.5 g/ha ([1]; Dinebra chinensis, post-emergence, 480 h, 20 DAA, 17.5 gae/ha, read-out: Visual Weed Control (%) Obs): 10%
pest or weed control at 19.4 g/ha ([1]; Dinebra chinensis, post-emergence, 480 h, 20 DAA, 19.4 gae/ha, read-out: Visual Weed Control (%) Obs): 5%
pest or weed control at 21.2 g/ha ([1]; Dinebra chinensis, post-emergence, 480 h, 20 DAA, 21.2 gae/ha, read-out: Visual Weed Control (%) Obs): 15%
pest or weed control at 8.75 g/ha ([1]; Dinebra chinensis, post-emergence, 504 h, 21 DAA, read-out: Visual Weed Control (%) Obs): 40%
pest or weed control at 17.5 g/ha ([1]; Dinebra chinensis, post-emergence, 504 h, 21 DAA, 17.5 gae/ha, read-out: Visual Weed Control (%) Obs): 30%
Visual Weed Control (%) Obs ([3]; 21 DAA, 4.38 gae/ha): 70%
Visual Weed Control (%) Obs ([3]; 22 DAA, 8 gae/ha): 60%
Visual Weed Control (%) Obs ([3]; 22 DAA, 16 gae/ha): 90%
